Holding throughout (type): ADME
For data set [1], the target named is T1, CYP2A6 (Homo sapiens, UniProt P11509).
T1 sequence (P11509 whole entry): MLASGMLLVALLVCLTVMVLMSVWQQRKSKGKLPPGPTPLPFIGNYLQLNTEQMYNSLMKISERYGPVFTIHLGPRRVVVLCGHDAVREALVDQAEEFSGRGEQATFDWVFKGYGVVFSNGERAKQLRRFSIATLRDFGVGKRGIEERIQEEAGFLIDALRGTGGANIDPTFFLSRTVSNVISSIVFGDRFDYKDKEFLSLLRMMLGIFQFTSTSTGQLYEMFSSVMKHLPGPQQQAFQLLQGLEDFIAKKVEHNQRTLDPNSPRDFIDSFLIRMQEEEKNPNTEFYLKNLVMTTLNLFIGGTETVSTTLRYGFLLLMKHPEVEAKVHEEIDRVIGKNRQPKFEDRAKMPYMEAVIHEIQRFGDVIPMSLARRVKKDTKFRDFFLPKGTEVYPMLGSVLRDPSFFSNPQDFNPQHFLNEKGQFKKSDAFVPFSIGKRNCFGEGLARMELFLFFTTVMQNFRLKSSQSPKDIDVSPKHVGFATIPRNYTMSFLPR
Nature of the data set: Inhibition of CYP2A6 in human liver microsomes assessed as enzyme-mediated metabolite formation at 3 uM using coumarin as substrate preincubated for 20 mins followed by substrate addition measured after 30 mins in presence of NADPH by LC-MS/MS analysis relative to control. Also on record: scale not given: the % may be the effect or the level left. The conditions noted are these: probe coumarin, read-out: Activity. In general terms: Liver microsomes are vesicles of endoplasmic reticulum, rich in cytochrome P450 enzymes.

In data set [2] the target is T2, CYP2C8 (Homo sapiens, UniProt P10632).
T2 sequence (P10632 whole entry): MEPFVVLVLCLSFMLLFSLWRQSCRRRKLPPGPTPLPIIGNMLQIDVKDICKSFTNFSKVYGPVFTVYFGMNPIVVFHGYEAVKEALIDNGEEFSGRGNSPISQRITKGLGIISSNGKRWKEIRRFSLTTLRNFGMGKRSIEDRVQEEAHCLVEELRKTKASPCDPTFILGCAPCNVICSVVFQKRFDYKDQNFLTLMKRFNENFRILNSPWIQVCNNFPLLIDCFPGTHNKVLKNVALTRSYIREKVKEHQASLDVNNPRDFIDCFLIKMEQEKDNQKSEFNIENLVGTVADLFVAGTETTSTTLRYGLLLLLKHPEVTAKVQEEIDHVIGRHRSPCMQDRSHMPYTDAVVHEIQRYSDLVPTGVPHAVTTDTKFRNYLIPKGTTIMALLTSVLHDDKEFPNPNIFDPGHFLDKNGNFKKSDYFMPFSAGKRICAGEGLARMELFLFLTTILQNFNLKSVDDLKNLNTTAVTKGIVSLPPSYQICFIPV
Nature of the data set: Inhibition of CYP2C8 in human liver microsomes assessed as enzyme-mediated metabolite formation at 10 uM using paclitaxel as substrate incubated for 5 mins followed by NADPH addition measured after 30 mins by LC-MS/MS analysis relative to control. Also on record: scale not given: the % may be the effect or the level left. Conditions: probe paclitaxel, read-out: Activity.

The target of data set [3] is T3, CYP2C9 (Homo sapiens, UniProt P11712). Nature of the data set: Inhibition of CYP2C9 in human liver microsomes assessed as enzyme-mediated metabolite formation at 0.1 uM using diclofenac as substrate incubated for 5 mins followed by NADPH addition measured after 30 mins by LC-MS/MS analysis relative to control. Also on record: scale not given: the % may be the effect or the level left. Conditions: probe diclofenac, read-out: Activity.
T3 sequence (P11712 whole entry): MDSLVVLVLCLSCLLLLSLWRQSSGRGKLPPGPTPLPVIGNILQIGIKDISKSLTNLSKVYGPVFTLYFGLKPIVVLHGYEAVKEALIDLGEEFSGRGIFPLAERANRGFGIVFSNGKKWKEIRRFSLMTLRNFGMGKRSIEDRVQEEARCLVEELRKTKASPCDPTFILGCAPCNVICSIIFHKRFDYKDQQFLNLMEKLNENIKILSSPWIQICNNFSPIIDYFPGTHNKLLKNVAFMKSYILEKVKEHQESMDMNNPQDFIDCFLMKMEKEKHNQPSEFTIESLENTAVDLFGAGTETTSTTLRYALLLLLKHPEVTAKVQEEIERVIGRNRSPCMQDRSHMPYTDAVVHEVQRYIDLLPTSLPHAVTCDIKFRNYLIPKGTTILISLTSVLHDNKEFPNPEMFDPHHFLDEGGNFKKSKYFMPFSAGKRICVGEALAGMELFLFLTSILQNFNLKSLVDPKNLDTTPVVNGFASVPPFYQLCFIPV

The target of data set [4] is CYP2C19 (Homo sapiens, UniProt P33261). The experiment in a line: Inhibition of CYP2C19 in human liver microsomes assessed as enzyme-mediated metabolite formation at 0.1 uM using (S)-mephenytoin as substrate incubated for 5 mins followed by NADPH addition measured after 30 mins by LC-MS/MS analysis relative to control. The conditions noted are these: probe (S)-mephenytoin, read-out: Activity. Also on record: scale not given: the % may be the effect or the level left.
Sequence of CYP2C19 (P33261 whole entry): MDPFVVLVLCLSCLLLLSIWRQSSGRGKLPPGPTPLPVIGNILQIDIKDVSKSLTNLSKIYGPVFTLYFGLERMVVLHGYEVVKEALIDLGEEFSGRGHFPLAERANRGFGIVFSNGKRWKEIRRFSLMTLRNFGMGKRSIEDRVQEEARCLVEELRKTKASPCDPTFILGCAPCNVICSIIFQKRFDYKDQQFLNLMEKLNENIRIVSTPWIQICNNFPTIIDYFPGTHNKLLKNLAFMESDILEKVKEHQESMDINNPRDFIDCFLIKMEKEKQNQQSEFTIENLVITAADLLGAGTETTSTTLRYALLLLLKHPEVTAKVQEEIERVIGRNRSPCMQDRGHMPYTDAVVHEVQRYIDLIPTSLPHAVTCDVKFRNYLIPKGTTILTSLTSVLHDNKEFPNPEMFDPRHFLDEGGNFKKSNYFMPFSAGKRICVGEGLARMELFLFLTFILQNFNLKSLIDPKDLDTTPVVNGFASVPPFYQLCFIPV

In data set [5] the target is T4, Cytochrome P450 2B6 (Homo sapiens, UniProt P20813).
T4 sequence (P20813 whole entry): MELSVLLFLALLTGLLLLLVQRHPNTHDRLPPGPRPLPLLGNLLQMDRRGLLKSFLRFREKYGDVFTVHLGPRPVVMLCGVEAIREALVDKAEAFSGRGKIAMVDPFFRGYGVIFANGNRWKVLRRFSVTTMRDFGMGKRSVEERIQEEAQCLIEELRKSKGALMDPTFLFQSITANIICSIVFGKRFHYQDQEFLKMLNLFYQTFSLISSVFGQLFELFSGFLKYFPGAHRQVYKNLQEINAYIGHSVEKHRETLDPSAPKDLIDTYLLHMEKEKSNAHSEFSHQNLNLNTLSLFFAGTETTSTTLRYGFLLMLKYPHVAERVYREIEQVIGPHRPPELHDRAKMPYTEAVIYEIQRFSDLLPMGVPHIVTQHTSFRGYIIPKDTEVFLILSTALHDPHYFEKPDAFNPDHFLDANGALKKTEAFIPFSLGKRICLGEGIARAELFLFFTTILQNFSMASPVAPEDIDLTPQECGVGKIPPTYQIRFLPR
Nature of the data set: Inhibition of CYP2B6 in human liver microsomes assessed as enzyme-mediated metabolite formation using bupropion as substrate incubated for 5 mins followed by NADPH addition measured after 30 mins by LC-MS/MS analysis.

Data set [6] addresses T3, CYP2C9. The experiment in a line: Inhibition of CYP2C9 in human liver microsomes assessed as enzyme-mediated metabolite formation at 3 uM using diclofenac as substrate incubated for 5 mins followed by NADPH addition measured after 30 mins by LC-MS/MS analysis relative to control. Also on record: scale not given: the % may be the effect or the level left. Conditions: probe diclofenac, read-out: Activity.

Data set [7] deals with CYP2D6 (Homo sapiens, UniProt P10635). The experiment in a line: Inhibition of CYP2D6 in human liver microsomes assessed as enzyme-mediated metabolite formation at 30 uM using dextromethorphan as substrate preincubated for 20 mins followed by substrate addition measured after 30 mins in presence of NADPH by LC-MS/MS analysis relative to control. Also on record: scale not given: the % may be the effect or the level left. The conditions noted are these: probe dextromethorphan, read-out: Activity.
Sequence of CYP2D6 (P10635 whole entry): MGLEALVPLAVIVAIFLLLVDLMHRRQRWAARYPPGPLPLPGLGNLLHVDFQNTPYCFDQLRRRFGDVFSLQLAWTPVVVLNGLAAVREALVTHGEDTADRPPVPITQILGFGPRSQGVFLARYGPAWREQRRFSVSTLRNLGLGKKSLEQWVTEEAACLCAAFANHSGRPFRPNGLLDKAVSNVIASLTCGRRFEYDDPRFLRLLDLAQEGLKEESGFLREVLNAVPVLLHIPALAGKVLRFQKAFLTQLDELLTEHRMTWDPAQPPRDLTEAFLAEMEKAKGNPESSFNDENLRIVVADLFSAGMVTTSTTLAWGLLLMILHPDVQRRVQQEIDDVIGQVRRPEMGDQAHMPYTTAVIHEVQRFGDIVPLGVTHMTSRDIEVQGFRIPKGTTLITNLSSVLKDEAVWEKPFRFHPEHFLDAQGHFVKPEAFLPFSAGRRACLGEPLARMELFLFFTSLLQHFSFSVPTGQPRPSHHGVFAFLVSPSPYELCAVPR

Data set [8] deals with T5, CYP2B6 (Homo sapiens, UniProt P20813).
T5 sequence (P20813 whole entry): T4 sequence (P20813 whole entry)
Nature of the data set: Inhibition of CYP2B6 in human liver microsomes assessed as enzyme-mediated metabolite formation at 0.1 uM using bupropion as substrate preincubated for 20 mins followed by substrate addition measured after 30 mins in presence of NADPH by LC-MS/MS analysis relative to control. Also on record: scale not given: the % may be the effect or the level left. The conditions noted are these: probe bupropion, read-out: Activity.

The target in data set [9] is T1, CYP2A6. The experiment in a line: Inhibition of CYP2A6 in human liver microsomes assessed as enzyme-mediated metabolite formation at 30 uM using coumarin as substrate incubated for 5 mins followed by NADPH addition measured after 30 mins by LC-MS/MS analysis relative to control. Also on record: scale not given: the % may be the effect or the level left. Conditions: probe coumarin, read-out: Activity.

For data set [10], the target named is CYP3A4 (Homo sapiens, UniProt P08684). The experiment in a line: Inhibition of CYP3A4 in human liver microsomes assessed as enzyme-mediated metabolite formation at 3 uM using midazolam as substrate preincubated for 20 mins followed by substrate addition measured after 30 mins in presence of NADPH by LC-MS/MS analysis relative to control. Also on record: scale not given: the % may be the effect or the level left. The conditions noted are these: probe midazolam, read-out: Activity.
Sequence of CYP3A4 (P08684 whole entry): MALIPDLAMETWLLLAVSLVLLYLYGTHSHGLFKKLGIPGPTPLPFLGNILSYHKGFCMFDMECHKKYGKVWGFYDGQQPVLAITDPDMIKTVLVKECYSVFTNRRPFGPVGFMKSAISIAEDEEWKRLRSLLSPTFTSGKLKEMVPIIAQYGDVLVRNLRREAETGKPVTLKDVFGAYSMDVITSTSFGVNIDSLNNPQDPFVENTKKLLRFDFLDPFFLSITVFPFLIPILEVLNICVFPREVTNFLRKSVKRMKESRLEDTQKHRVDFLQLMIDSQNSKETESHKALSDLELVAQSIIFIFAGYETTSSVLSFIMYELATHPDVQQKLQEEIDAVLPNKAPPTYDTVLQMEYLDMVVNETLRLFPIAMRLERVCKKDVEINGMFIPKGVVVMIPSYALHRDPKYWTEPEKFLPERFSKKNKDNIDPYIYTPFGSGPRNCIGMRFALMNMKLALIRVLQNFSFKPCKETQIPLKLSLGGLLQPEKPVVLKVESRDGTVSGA

The target in data set [11] is T5, CYP2B6. Nature of the data set: Inhibition of CYP2B6 in human liver microsomes assessed as enzyme-mediated metabolite formation at 0.3 uM using bupropion as substrate incubated for 5 mins followed by NADPH addition measured after 30 mins by LC-MS/MS analysis relative to control. Also on record: scale not given: the % may be the effect or the level left. The conditions noted are these: probe bupropion, read-out: Activity.

The target of data set [12] is T1, CYP2A6. The experiment in a line: Inhibition of CYP2A6 in human liver microsomes assessed as enzyme-mediated metabolite formation at 0.3 uM using coumarin as substrate incubated for 5 mins followed by NADPH addition measured after 30 mins by LC-MS/MS analysis relative to control. Conditions: probe coumarin, read-out: Activity. Also on record: scale not given: the % may be the effect or the level left.

Results on 1 compound are retold here after ChEMBL document CHEMBL4007467, “Effects of 6-paradol, an unsaturated ketone from gingers, on cytochrome P450-mediated drug metabolism” (Bioorg Med Chem Lett, 2017).

pIC50: −log10 of the molar value.

By pIC50 is commonly meant the IC50 on a negative log10 scale, so that one unit is a factor of ten.

For the compound `CCCCCCCC(=O)CCc1ccc(O)c(OC)c1`, the activity at 0.5 h, 3 µM was 104% in [1], 68.1% in [6] and 103% in data set [10]. In [2], the activity at 0.5 h, 10 µM is 45.5%. The activity at 0.5 h, 0.1 µM turned out to be 120% in data set [3], 98.4% in [4] and 88.5% in data set [8]. In data set [5], the pIC50 is 4.81. Also, the values for the activity at 0.5 h, 30 µM in data set [7] and in data set [9] were 80.1% and 77.4%, respectively. Also, the activity at 0.5 h, 0.3 µM in data set [11] amounted to 68.8%; in data set [12], 83.8%.
